Test results: US6441006B2, “Pharmaceutical compositions and methods for use” (Targacept, Inc., priority 1998, dated 2002)
pEC50, pKi: −log10 of the molar value.

What was measured:
CNS nicotinic receptors [1] = target: T1, CNS nicotinic receptors (Rattus norvegicus, UniProt P09483+P12390); experiment: Binding to relevant receptor sites; conditions: calculated from IC50 values using the method of Cheng et al.
T1 construct: Ki
Method: Binding of the compounds to relevant receptor sites was determined in accordance with the techniques described in U.S. Pat. No. 5,597,919 to Dull et al. Inhibition constants (Ki values), reported in nM, were calculated from the IC50 values using the method of Cheng et al., Biochem, Pharmacol. 22:3099 (1973).

[2] = target: T2, muscle-type nicotinic acetylcholine receptors (Homo sapiens, UniProt P02708+P07510+Q07001); experiment: Interaction with muscle receptors; format: cell-based; conditions: relative to (S)-(-)-nicotine
T2 construct: endogenous in cells; host or cells: TE671/RD (own knowledge of the cited US 5,597,919)
Method: (§1) The determination of the interaction of the compounds with muscle receptors was carried out in accordance with the techniques described in U.S. Pat. No. 5,597,919 to Dull et al. The maximal activation for individual compounds (Emax) was determined as a percentage of the maximal activation induced by (S)-(−)-nicotine. Reported Emax values represent the amount released relative to (S)-(−)-nicotine on a percentage basis. […] Such preferable compounds have the capability to activate human CNS receptors without activating muscle-type nicotinic acetylcholine receptors. Thus, there is provided a therapeutic window for utilization in the treatment of CNS disorders. […] The compounds begin to cause muscle effects only when employed in amounts of many times those required to activate dopamine release.

[3] = test system: ganglia-type nicotinic acetylcholine receptors; experiment: Interaction with ganglion receptors; format: cell-based; conditions: relative to (S)-(-)-nicotine
Method: as §1, with “ganglionic” for “muscle”, “ganglia-type” for “muscle-type”, “cause” for “cause muscle”, “effects at ganglia” for “effects”
The determination of the interaction of the compounds with ganglionic receptors was carried out in accordance with the techniques described in U.S. Pat. No. 5,597,919 to Dull et al. The maximal activation for individual compounds (Emax) was determined as a percentage of the maximal activation induced by (S)-(−)-nicotine. Reported Emax values represent the amount released relative to (S)-(−)-nicotine on a percentage basis.

dopamine release = experiment: Dopamine release; format: biochemical
Method: Dopamine release was measured using the techniques described in U.S. Pat. No. 5,597,919 to Dull et al. Release is expressed as a percentage of release obtained with a concentration of (S)-(−)-nicotine resulting in maximal effects. Reported EC50 values are expressed in nM, and Emax values represent the amount released relative to (S)-(−)-nicotine on a percentage basis.

CNS nicotinic receptors [4] = target: T3, CNS nicotinic receptors; experiment: Rubidium release; format: biochemical
T3 construct: Emax, rubidium release; other: relative to 300 uM tetramethylammonium ion
Method: Rubidium release was measured using the techniques described in Bencherif et al., JPET, 279: 1413-1421 (1996). Reported EC50 values are expressed in nM, and Emax values represent the amount of rubidium ion released relative to 300 uM tetranmethylammonium ion, on a percentage basis.

laboratory rats = experiment: Step-through passive avoidance, scopolamine induced amnesia; format: in vivo, rat; conditions: 0.3 to 3 umol/kg subcutaneous, 0.5 umol/kg scopolamine
Method: A Gemini Avoidance System (San Diego Instruments) were used to evaluate animals in a passive avoidance experiment. During the period of habituation, laboratory rats received a subcutaneous injection of saline. On the acquisition day, each rat received a subcutaneous injection of 0.5 umol/kg scopolamine (or saline in the case of the vehicle control group) 30 minutes prior to being placed in the chambers. Five minutes following scopolamine injection, (or 25 minutes before being placed in the chamber), each rat was administered a subcutaneous injection with one of four doses of the compound. Thirty minutes following the scopolamine or vehicle injection, each rat was placed in the brightly illuminated chamber, facing away from the sliding door. After 10 seconds, the door separating the chambers opened allowing access to the dark chamber. The time to enter the dark chamber was measured. Immediately upon entering the dark chamber, the rat received a mild foot shock (0.5 mAmp) for 2 seconds. Twenty four hours following training, each rat was placed in the light chamber facing away from the sliding door. […] Statistical differences in latencies (latency during acquisition and retention trials) were analyzed by Kruskal-Wallis one-way analysis of variance on ranks followed by the either of two-tailed Mann-Whitney U-test or Newman-Keuls analog test if values of p less than 0.05 were obtained. […]

T2 sequence (P02708 21-457): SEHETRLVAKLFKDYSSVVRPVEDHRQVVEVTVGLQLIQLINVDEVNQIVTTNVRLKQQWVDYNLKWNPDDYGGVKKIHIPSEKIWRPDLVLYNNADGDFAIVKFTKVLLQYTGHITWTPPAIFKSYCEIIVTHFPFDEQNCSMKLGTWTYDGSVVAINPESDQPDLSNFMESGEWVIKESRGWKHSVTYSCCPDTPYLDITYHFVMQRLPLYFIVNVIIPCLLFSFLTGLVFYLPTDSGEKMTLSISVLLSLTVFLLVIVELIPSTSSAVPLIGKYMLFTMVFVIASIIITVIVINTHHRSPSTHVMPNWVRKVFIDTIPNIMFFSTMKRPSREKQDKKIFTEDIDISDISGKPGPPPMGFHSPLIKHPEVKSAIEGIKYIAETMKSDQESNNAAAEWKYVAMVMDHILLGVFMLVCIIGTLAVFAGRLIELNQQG
T2 sequence (P11230 24-501 partner): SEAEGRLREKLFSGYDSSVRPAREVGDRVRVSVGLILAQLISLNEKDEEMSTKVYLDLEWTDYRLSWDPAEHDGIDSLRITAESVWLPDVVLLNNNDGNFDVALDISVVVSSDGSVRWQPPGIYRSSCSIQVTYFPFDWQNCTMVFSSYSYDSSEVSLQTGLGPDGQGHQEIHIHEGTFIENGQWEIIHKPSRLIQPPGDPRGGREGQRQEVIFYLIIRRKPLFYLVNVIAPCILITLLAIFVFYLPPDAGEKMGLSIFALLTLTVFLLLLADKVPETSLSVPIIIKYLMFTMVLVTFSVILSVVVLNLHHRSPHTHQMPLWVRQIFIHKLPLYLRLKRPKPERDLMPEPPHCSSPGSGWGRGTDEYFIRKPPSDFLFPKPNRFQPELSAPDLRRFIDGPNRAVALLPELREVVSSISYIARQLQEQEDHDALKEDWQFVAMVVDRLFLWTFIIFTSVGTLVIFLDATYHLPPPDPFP
T2 sequence (Q07001 22-517): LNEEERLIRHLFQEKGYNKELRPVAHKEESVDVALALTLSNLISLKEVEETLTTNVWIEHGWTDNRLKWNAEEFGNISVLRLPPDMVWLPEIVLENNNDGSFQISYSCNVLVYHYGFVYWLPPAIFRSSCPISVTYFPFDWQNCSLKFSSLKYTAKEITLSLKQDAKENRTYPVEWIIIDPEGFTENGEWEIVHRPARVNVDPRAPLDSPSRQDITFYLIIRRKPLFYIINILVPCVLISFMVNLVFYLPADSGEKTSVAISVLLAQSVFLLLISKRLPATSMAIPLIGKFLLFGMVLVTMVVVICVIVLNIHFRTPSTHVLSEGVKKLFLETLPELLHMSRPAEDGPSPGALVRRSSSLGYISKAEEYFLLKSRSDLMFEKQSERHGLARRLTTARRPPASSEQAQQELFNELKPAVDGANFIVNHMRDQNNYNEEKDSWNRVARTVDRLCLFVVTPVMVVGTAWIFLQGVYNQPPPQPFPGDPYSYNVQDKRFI
T2 sequence (P07510 23-517): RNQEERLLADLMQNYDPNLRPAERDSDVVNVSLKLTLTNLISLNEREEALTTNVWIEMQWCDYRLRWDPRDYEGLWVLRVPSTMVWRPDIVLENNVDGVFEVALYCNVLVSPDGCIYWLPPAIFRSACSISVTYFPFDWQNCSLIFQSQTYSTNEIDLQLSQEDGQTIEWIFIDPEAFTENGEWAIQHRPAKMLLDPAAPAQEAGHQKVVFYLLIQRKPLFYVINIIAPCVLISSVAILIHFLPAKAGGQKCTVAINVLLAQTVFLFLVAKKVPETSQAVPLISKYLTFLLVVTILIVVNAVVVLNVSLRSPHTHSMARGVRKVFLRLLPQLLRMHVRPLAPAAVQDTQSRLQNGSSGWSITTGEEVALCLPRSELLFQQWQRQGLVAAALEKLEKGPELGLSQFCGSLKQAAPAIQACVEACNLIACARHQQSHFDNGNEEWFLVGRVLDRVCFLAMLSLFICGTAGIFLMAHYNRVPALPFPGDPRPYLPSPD
T1 sequence (P09483 31-630): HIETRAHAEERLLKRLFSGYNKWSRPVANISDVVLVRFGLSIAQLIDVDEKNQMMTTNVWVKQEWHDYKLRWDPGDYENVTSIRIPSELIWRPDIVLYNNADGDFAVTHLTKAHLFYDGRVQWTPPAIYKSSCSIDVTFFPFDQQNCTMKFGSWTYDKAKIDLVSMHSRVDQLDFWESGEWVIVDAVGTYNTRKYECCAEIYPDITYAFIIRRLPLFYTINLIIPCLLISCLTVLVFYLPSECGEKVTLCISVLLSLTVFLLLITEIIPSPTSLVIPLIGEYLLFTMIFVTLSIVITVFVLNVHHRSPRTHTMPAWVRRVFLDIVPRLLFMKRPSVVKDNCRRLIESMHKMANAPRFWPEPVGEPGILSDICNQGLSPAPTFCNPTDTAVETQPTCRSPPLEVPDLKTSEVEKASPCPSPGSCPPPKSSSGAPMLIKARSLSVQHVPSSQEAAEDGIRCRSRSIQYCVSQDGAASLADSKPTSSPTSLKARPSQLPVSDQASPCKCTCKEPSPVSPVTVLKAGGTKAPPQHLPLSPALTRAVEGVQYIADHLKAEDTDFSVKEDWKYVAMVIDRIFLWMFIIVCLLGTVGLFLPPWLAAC
T1 sequence (P12390 25-500): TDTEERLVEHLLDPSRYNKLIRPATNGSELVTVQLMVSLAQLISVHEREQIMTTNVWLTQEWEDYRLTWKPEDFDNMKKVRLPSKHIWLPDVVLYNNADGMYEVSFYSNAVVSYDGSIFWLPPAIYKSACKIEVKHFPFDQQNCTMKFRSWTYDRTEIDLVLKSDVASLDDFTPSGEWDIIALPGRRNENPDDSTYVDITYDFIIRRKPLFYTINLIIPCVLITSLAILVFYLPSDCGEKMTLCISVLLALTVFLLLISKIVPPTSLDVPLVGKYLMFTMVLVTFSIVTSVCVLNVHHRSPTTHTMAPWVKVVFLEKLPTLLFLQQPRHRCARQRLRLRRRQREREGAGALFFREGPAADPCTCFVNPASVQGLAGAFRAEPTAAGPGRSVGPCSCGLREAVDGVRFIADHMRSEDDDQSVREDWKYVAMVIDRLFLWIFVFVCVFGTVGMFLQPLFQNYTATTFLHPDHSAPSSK

## (3-(3-Pyridyloxy)propyl)methylamine Hemigalactarate [Example 5]
CNS nicotinic receptors [1]
  pKi: 7.89
[2]
  Emax at muscle-type receptors: 0%
[3]
  Emax at ganglionic-type receptors: 93%
Dopamine release
  pEC50: 6.43
Dopamine release; amount released relative to (S)-(-)-nicotine
  Emax, dopamine release: 96%
CNS nicotinic receptors [4]
  pEC50: 6.02
CNS nicotinic receptors [4]; relative to 300 uM tetramethylammonium ion
  Emax, rubidium release: 83%
Laboratory rats
  reversal of scopolamine induced amnesia: significant reversal of scopolamine induced amnesia
